This is an account of results in patent US20170015654A1, “PYRIDAZINE COMPOUND” (TAKEDA PHARMACEUTICAL COMPANY LIMITED, priority 2014, published 2017).

The subject of experiment [1] is HCT116 cells. Briefly: Measurement of growth inhibitory activity using HCT116 cell. It is filed as cell-based. The settings on record: Homo sapiens, HCT-116, 72 h, 1 μM compound, 3 days, CellTiter-Glo, read-out: Rate of inhibition of cell growth at compound concentration of 1 μM. The method, then:
Measurement of Growth Inhibitory Activity Using HCT116 Cell
Each compound was evaluated for its growth inhibitory activity against HCT116 cells (ATCC) by the following method: the HCT116 cells were inoculated at 900 cells/40 μL/well to a 384-well white plate (Greiner Bio-one) and maintained in an assay medium (RPMI medium (Wako Pure Chemical Industries, Ltd.) containing 2% fetal bovine serum, 50 units/mL penicillin and 50 μg/mL streptomycin (Invitrogen Corp.)). On the next day, the test compound dissolved in dimethyl sulfoxide (DMSO) was dispensed to the plate using TECAN D300 digital dispenser (Tecan Trading AG). Then, the concentration of DMSO in the medium was adjusted to 0.1% by the addition of DMSO. The HCT116 cells supplemented with the compound were incubated at 37° C. in a 5% CO2 environment (test compound addition group).
Also, the same reaction as above was carried out without the addition of the test compound (test compound non-addition group).
Further, the same reaction as above was carried out on condition that neither the HCT116 cells nor the test compound were added (control group).
After 3 days, 20 μL of CellTiter-Glo reagent (Promega Corp.) was added to each well, and the mixture was stirred for 10 minutes. Then, the light emission of each well was measured using ARVO MX1420 (PerkinElmer, Inc.).
The rate of inhibition of HCT116 cell growth (%) was determined according to the following calculation expression:
Rate of inhibition of cell growth=(1−(Light emission of the test compound addition group−Light emission of the control group)/(Light emission of the test compound non-addition group−Light emission of the control group))×100

Experiment [2] deals with T1, human SCD1 (Homo sapiens, UniProt O00767).
T1 construct: made in house; host or cells: High Five insect cells (baculovirus, pFastBac1/hSCD1); membrane fraction
T1 sequence (O00767 1-359): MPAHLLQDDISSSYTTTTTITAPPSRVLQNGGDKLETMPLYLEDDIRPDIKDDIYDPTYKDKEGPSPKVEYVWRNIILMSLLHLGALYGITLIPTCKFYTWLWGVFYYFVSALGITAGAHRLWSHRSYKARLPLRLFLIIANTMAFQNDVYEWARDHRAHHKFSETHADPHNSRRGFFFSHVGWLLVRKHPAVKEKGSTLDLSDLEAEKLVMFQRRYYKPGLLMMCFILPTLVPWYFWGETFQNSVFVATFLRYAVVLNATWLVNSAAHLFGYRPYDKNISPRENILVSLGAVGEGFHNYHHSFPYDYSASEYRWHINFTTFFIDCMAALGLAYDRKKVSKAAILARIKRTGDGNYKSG
Briefly: Measurement of human SCD1 binding activity (inhibition of binding of radiolabeled compound Z). The settings on record: human SCD1-expressing membrane fraction, compound Z radioligand; for inhibition at 1 µM: 1 μM compound, read-out: Rate of inhibition of SCD1 binding (%) at compound concentration of 1 μM. The method, then: Measurement of Human SCD1 Binding Activity Using (5-(6-(1′H-spiro[1-benzofuran-3,3′-pyrrolidin]-1′-yl)pyridazin-3-yl)-1,2,4-oxadiazol-3-yl) [^3H2]methanol
The SCD1 binding activity of the compound of the present invention was measured as the activity of inhibiting the binding of (5-(6-(1′H-spiro[1-benzofuran-3,3′-pyrrolidin]-1′-yl)pyridazin-3-yl)-1,2,4-oxadiazol-3-yl)[^3H2]methanol (radiolabeled form of the compound disclosed as a SCD inhibitor in Example 157 of International Publication No. WO2008/096746; in the present specification, also referred to as compound Z) to SCD1.
Specifically, first, Human liver cDNA library (Takara Bio Inc.) was cloned as a template by PCR using KOD-Plus-(Toyobo Co., Ltd.) DNA polymerase. The primers used were 5′-[…]-3′ and 5′-[…]-3′. The amplification fragment was temporarily transferred to a pCR Blunt II-TOPO vector using Zero Blunt PCR Cloning Kit (Life Technologies, Inc.) to obtain pCR Blunt II-TOPO/hSCD1. A fragment obtained by the cleavage of this pCR Blunt II-TOPO/hSCD1 with BamHI and NotI was transferred to pFastBac1 (Life Technologies, Inc.) to construct a recombinant plasmid pFastBac1/hSCD1 for hSCD1 insect cell expression systems.
Baculovirus was prepared using the pFastBac1/hSCD1 plasmid according to the protocol of Bac-to-Bac Baculovirus Expression System (Life Technologies, Inc.).
The insect cells for use in expression were High Five cells (Life Technologies, Inc.) subcultured in a PSFM-J1 medium (Wako Pure Chemical Industries, Ltd.) containing 5% FBS, 10 U/L heparin (Sigma-Aldrich Corp.) and 50 μg/mL gentamicin.
The High Five cells were inoculated at 0.8×10^6 cells/mL and cultured until the following day. When the cell density reached 2.0×10^6 cells/mL, Ammonium Iron(III) Sulfate 12-Water (Wako Pure Chemical Industries, Ltd.) was added thereto at a final concentration of 10 μM. The cells were further infected with the baculovirus and cultured for 3 days.
After the completion of the culture, the culture solution was centrifuged (4° C., 4,000 rpm, […]) and frozen at −80° C. to obtain hSCD1-expressing insect cells. Next, the frozen hSCD1-expressing insect cells were suspended in buffer A (50 mM Tris-HCl (pH 7.5) containing 250 mM sucrose and cOmplete Protease Inhibitor Cocktail Tablets (F. Hoffmann-La Roche, Ltd.)), and the cells were disrupted (4° C., 20,000 rpm, 20 sec×2) using a POLYTORON homogenizer (Central Scientific Commerce, Inc.).
This cell lysate was centrifuged (4° C., 850×g, […]), and the supernatant was further ultracentrifuged (4° C., 186,000×g, 60 min). The supernatant was discarded, and buffer A was added to the precipitate. The resultant was suspended using POLYTRON (4° C., 10,000 rpm, 10 sec×2) and passed through a 40-μm cell strainer to prepare a human SCD1-expressing membrane fraction (hereinafter, also simply referred to as human SCD1). The protein concentration was measured using BCA Protein Assay Kit (Thermo Fisher Scientific, Inc.) with BSA used as standards.
The obtained primary dilution was diluted 250-fold by the addition of an assay buffer (10 mM Tris-HCl, pH 7.5, 100 mM KCl, 10 mM NaF, 3 mM MgCl2, 0.005% Tween 20, 1 mM GSH) to obtain a secondary dilution. The human SCD1 diluted using an assay buffer was dispensed at 100 μL/well (containing 0.2 μg of the protein) to a polypropylene 96-well plate, and then, the secondary dilution of the compound was added thereto at 50 μL/well. Further, a solution of 12 nM compound Z diluted with an assay buffer was added thereto at 50 μL/well, and the plate was left standing at room temperature for 2 hours. Then, the contents in each well were transferred to each well of UniFilter-96 GF/C PEI coated plate (PerkinElmer, Inc.) wetted with a washing buffer, followed by washing five times with a washing buffer (10 mM Tris-HCl, pH 7.5). After drying of the filter plate, Microscint-O (PerkinElmer, Inc.) was added thereto at 25 μL/well, and the obtained radioactivity was measured using TopCount (PerkinElmer, Inc.). […]

As to `N#CC1(c2ccc(S(F)(F)(F)(F)F)cc2)CCN(c2ccc(-c3nnc(CO)o3)nn2)CC1` [Example 58, 1-(6-(5-(Hydroxymethyl)-1,3,4-oxadiazol-2-yl)pyridazin-3-yl)-4-(4-(pentafluorosulfanyl)phenyl)piperidine-4-carbonitrile], the inhibition at 1 µM came out at 88% in experiment [1] and 89% in experiment [2].

With `OCc1noc(-c2ccc(N3CCC(c4ccc(C(F)(F)F)cc4)(C(F)(F)F)CC3)nn2)n1` [Example 82, (5-(6-(4-(Trifluoromethyl)-4-(4-(trifluoromethyl)phenyl)piperidin-1-yl)pyridazin-3-yl)-1,2,4-oxadiazol-3-yl)methanol], the inhibition at 1 µM in experiment [1] turned out to be 89%; in experiment [2] it was 99%.

With `OCc1nnc(-c2ccc(N3CCC(c4ccc(C(F)(F)F)cc4)(C(F)(F)F)CC3)nn2)o1` [Example 84, (5-(6-(4-(Trifluoromethyl)-4-(4-(trifluoromethyl)phenyl)piperidin-1-yl)pyridazin-3-yl)-1,3,4-oxadiazol-2-yl)methanol], the inhibition at 1 µM stood at 88% in experiment [1] and 99% in experiment [2].

In the case of `COC1(c2ccc(S(F)(F)(F)(F)F)cc2)CCN(c2ccc(-c3nnc(CO)o3)nn2)CC1` [Example 93, (5-(6-(4-Methoxy-4-(4-(pentafluorosulfanyl)phenyl)piperidin-1-yl)pyridazin-3-yl)-1,3,4-oxadiazol-2-yl)methanol], the inhibition at 1 µM in experiment [1] was found to be 85%; in experiment [2] it was 98%.

As to `N#CC1(c2ccc(S(F)(F)(F)(F)F)cc2)CCN(c2ccc(-c3nc(CO)ns3)nn2)CC1` [Example 108, 1-(6-(3-(Hydroxymethyl)-1,2,4-thiadiazol-5-yl)pyridazin-3-yl)-4-(4-(pentafluorosulfanyl)phenyl)piperidine-4-carbonitrile], the inhibition at 1 µM in experiment [1] was 90%; in experiment [2], 99%.

On to `N#CC1(c2ccc(S(F)(F)(F)(F)F)cc2)CCN(c2ccc(-c3nnc(CO)s3)nn2)CC1` [Example 109, 1-(6-(5-(Hydroxymethyl)-1,3,4-thiadiazol-2-yl)pyridazin-3-yl)-4-(4-(pentafluorosulfanyl)phenyl)piperidine-4-carbonitrile], for which the inhibition at 1 µM in experiment [1] worked out at 88%; in experiment [2] it was 87%.

As for `COC1(c2ccc(S(F)(F)(F)(F)F)cc2)CCN(c2ccc(-c3nc(CO)ns3)nn2)CC1` [Example 110, (5-(6-(4-Methoxy-4-(4-(pentafluorosulfanyl)phenyl)piperidin-1-yl)pyridazin-3-yl)-1,2,4-thiadiazol-3-yl)methanol], the inhibition at 1 µM is 89% in experiment [1] and 100% in experiment [2].

On to `COC1(c2ccc(S(F)(F)(F)(F)F)cc2)CCN(c2ccc(-c3nnc(CO)s3)nn2)CC1` [Example 111, (5-(6-(4-Methoxy-4-(4-(pentafluorosulfanyl)phenyl)piperidin-1-yl)pyridazin-3-yl)-1,3,4-thiadiazol-2-yl)methanol], for which the inhibition at 1 µM in experiment [1] came out at 86%. In addition, the inhibition at 0.1 µM in experiment [2] (0.1 μM compound, read-out: Rate of inhibition of SCD1 binding at compound concentration of 0.1 μM) was 93%.

With `OCc1nsc(-c2ccc(N3CCC(c4ccc(C(F)(F)F)cc4)(C(F)(F)F)CC3)nn2)n1` [Example 112, (5-(6-(4-(Trifluoromethyl)-4-(4-(trifluoromethyl)phenyl)piperidin-1-yl)pyridazin-3-yl)-1,2,4-thiadiazol-3-yl)methanol], the inhibition at 1 µM in experiment [1] was 90%; in experiment [2], 99%.

Consider `OCc1nnc(-c2ccc(N3CCC(c4ccc(C(F)(F)F)cc4)(C(F)(F)F)CC3)nn2)s1` [Example 113, (5-(6-(4-(Trifluoromethyl)-4-(4-(trifluoromethyl)phenyl)piperidin-1-yl)pyridazin-3-yl)-1,3,4-thiadiazol-2-yl)methanol], for which the values for the inhibition at 1 µM in experiment [1] and in experiment [2] were 84% and 100%, respectively.
